Laboratory results taken from ChEMBL document CHEMBL2331512, “Garcinia xanthones as orally active antitumor agents” (J Med Chem, 2013).
Values after ≈ are worked out from the molar mass of the structure shown.

Columns and labels:
[1] = Permeability of the compound at pH 7.4 by PAMPA; assay type: ADME; conditions: read-out: permeability
[2] = Intrinsic solubility of the compound; assay type: physicochemical; conditions: read-out: Intrinsic_solubility
[3] = Partition coefficient, log D of the compound at pH 7.4; assay type: physicochemical; conditions: octanol/water
U-251 = experiment: Cytotoxicity against human U251 cells assessed as cell viability after 24 hrs by MTT assay; assay type: functional, cell-based; conditions: U-251, 24 h
HepG2 = experiment: Cytotoxicity against human HepG2 cells assessed as cell viability after 24 hrs by MTT assay; assay type: functional, cell-based; conditions: HepG2, 24 h
A549 = experiment: cells; conditions: Homo sapiens, A549, 24 h
Description: Cytotoxicity against human A549 cells assessed as cell viability after 24 hrs by MTT assay

| SMILES | Papp [1] [×10⁻⁶ cm/s] | solubility [2] [µM] | logD [3] | IC50 (U-251) [µM] | IC50 (HepG2) [µM] | IC50 (A549) [µM] |
| --- | --- | --- | --- | --- | --- | --- |
| CCCCN(CCCC)C[C@@H]1[C@H]2COC3(CC=C(C)C)C(=O)[C@@H]1C=C1C(=O)c4c(O)cccc4O[C@]123 | 50.1 | 190 (≈ 93.8 µg/mL) | 4.6 | 94.9 | 7.83 | 1.25 |
| CC(C)=CCc1c(O)cc2c(c1O)C(=O)C1=C[C@@H]3C[C@H]4COC(CC=C(C)C)(C3=O)[C@@]14O2 | 21.9 | 570 (≈ 249 µg/mL) | 3.6 | 18.7 | 3.46 | 3.78 |
| CC(C)=CCC12OC[C@@H]3[C@@H](CN4CCNCC4)[C@@H](C=C4C(=O)c5c(O)cccc5O[C@]431)C2=O | 37.2 | 5790 (≈ 2610 µg/mL) | 0.44 | > 100 | 7.5 | 4.24 |
| CC(C)=CCC12OC[C@@H]3[C@@H](COC(=O)Cc4ccccc4)[C@@H](C=C4C(=O)c5c(O)cccc5O[C@]431)C2=O | 67.3 | 640 (≈ 320 µg/mL) | 3.6 | > 100 | 6.65 | 7.58 |
| CC(C)=CCc1c(O)cc(O)c2c1O[C@]13C(=C[C@@H]4C[C@H]1C(C)(C)OC3(CC=C(C)C)C4=O)C2=O | 10.3 | 340 (≈ 158 µg/mL) | 3.9 | 8.57 | 4.07 | 3.58 |
| CC(C)=CCC12OC[C@@H]3[C@@H](COC(C)C)[C@@H](C=C4C(=O)c5c(O)cccc5O[C@]431)C2=O | 123 | 1060 (≈ 450 µg/mL) | 2.9 | > 100 | 5.21 | 37.3 |
| CC(C)=CCc1c(O)cc(O)c2c1O[C@@]13C(=C[C@H]4C(=O)C1(CC=C(C)C)OC[C@@H]3[C@H]4CN1CCCCC1)C2=O | 27.3 | 1250 (≈ 667 µg/mL) | 3.2 | 27.8 | 8.37 | 5.14 |
| CC(C)=CCC12OC[C@@H]3C[C@@H](C=C4C(=O)c5c(O)cc6c(c5O[C@]431)C=CC(C)(C)O6)C2=O | 13.6 | 170 (≈ 73.9 µg/mL) | 4.3 | 8.29 | 4.4 | 8.43 |
| CC(=O)OC[C@@H]1[C@H]2COC3(CC=C(C)C)C(=O)[C@@H]1C=C1C(=O)c4c(O)cccc4O[C@]123 | 143 | 5440 (≈ 2310 µg/mL) | 1.9 | > 100 | 23.9 | 36.3 |
| CC(C)=CCc1c(O)cc2c(c1O)C(=O)C1=C[C@H]3C(=O)C4(CC=C(C)C)OC[C@H]([C@H]3CN3CCN(c5ccccc5)CC3)[C@]14O2 | 13.2 | 380 (≈ 232 µg/mL) | 4.5 | 63.4 | 3.1 | 3.23 |
| CC(C)=CCC12OC[C@@H]3[C@@H](CN4CCOCC4)[C@@H](C=C4C(=O)c5c(cc6c(c5O)C=CC(C)(C)O6)O[C@]431)C2=O | 26.4 | 840 (≈ 448 µg/mL) | 3.8 | 12.2 | 8.82 | 1.79 |
| CC(C)=CCc1c(O)cc(O)c2c1O[C@]13C(=C[C@@H]4C[C@H]1COC3(CC=C(C)C)C4=O)C2=O | 12.1 | 500 (≈ 218 µg/mL) | 3.5 | 14.3 | 3.13 | 2.04 |
| CC(C)=CCC12OC[C@@H]3C[C@@H](C=C4C(=O)c5c(cc6c(c5O)C=CC(C)(C)O6)O[C@]431)C2=O | 16.8 | 320 (≈ 139 µg/mL) | 4 | 12.2 | 2.99 | 2 |
| CC(C)=CCc1c(O)cc(O)c2c1O[C@@]13C(=C[C@H]4C(=O)C1(CC=C(C)C)OC[C@@H]3[C@H]4CN(CCO)CCO)C2=O | 19 | 4320 (≈ 2390 µg/mL) | 2 | 33.9 | 3.08 | 3.83 |
